Measured values as given in article PMC12116161, “An Elastase Inhibitor ShSPI from Centipede Attenuates Bleomycin-Induced Pulmonary Fibrosis” (Toxins, 2025).

System: MCP-1, IL-6, IL-1β, IFN-γ, IL-10, TGF-β mRNA in lung tissue
Test: RT-qPCR of inflammatory factor mRNA in lung tissue of IPF mice
Type: in vivo, ICR mice
Conditions: pirfenidone 200 mg/kg oral gavage once daily for 7 days, BLM-induced IPF mice
Method: Animal Model Preparation: The peptide powder was dissolved in pre-cooled saline and filtered to remove bacteria, then a spray needle was attached to a micro-syringe to aspirate the peptide solution. A total of 56 ICR mice were anesthetized by intramuscular injection of avertin. After anesthesia, the mice were fixed supine, the tongue was gently pulled, the vocal folds were exposed with a laryngoscope, the trachea was gently inserted, and the nebulized solution was rapidly pushed and injected. Each mouse was administered 100 μL of a 0.4 mg/mL bleomycin solution via tracheal spray, with the treatment performed once. Seven days after modeling, the mice were randomly grouped for ShSPI treatment based on weight loss scores. An additional 8 mice received the vehicle (normal saline) and were designated as the sham group.
A total of 48 suitable mice were randomly divided into five groups: the model control group (MC), the positive control group (PC), and the ShSPI low-dose groups (1 mg/kg), medium-dose groups (2 mg/kg), and high-dose groups (4 mg/kg).
Drug Administration: Starting on day 7 post-modeling, ShSPI peptide treatment groups were anesthetized with intramuscular avertin and received tracheal spray administration of the peptide. The low-dose group was treated with 1 mg/kg ShSPI peptide, the medium-dose group with 2 mg/kg, and the high-dose group with 4 mg/kg. The positive control group, without anesthesia, received 200 mg/kg pirfenidone (IPFD) via oral gavage. All groups were treated once daily for seven consecutive days.
The left lobe of the lung was collected from each mouse for total RNA extraction using RNAiso Plus, following the manufacturer’s instructions. The extracted RNA was quantified using a UV spectrophotometer. One microgram of total RNA was reverse transcribed into cDNA using a first-strand cDNA synthesis kit, following the provided protocol. Quantitative PCR (qPCR) was performed on a QuantStudio system using 2× SYBR Green qPCR Master Mix, and β-actin served as the internal control. The PCR reaction utilized a two-step protocol: 95 °C for 15 s, followed by 60 °C for 60 s, repeated for 40 cycles. Gene expression levels were calculated using the 2^−ΔΔCt method.

Cc1ccc(=O)n(-c2ccccc2)c1 [pirfenidone, reference compound]
mRNA content of pro-inflammatory cytokines (MCP-1, IL-6, IL-1β, IFN-γ) in lung tissue: reduction
